Source: US9174980B2, “Heterocyclic compounds as inhibitors of leukotriene production” (Boehringer Ingelheim International GmbH, priority 2012, dated 2015)

Tests used:
[1] = system: synthesis of LTB4 in human whole blood; assay: Human whole blood assay (calcimycin-stimulated LTB4 synthesis); format: cell-based; conditions: Homo sapiens; read-out: Human Whole Blood LTB4 Assay for FLAP (IC50 nM)
Method in brief: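 Whole-blood cellular format, heparinized human donors: 15 min compound pretreatment, then 30 min calcimycin stimulation (20 μM final), both at 37° C. Low-speed centrifugation yields plasma, in which LTB4 is read by homogeneous time-resolved fluorescence immunoassay.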

[2] = biological target: T1, recombinant human FLAP protein (Homo sapiens, UniProt P20292); assay: FLAP binding assay (Scintillation Proximity Assay, displacement of [125I]L-691,831); conditions: read-out: Human FLAP SPA Binding (IC50 nM)
T1 construct: made in house; host or cells: Sf9 insect cells (membrane fraction, 100,000 x g pellet)
T1 sequence (P20292 1-161): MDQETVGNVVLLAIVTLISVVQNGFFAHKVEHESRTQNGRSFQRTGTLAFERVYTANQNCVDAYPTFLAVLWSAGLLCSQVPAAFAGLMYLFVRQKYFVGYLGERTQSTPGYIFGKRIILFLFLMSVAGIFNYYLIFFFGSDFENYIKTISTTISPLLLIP
Method in brief: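 Membranes from sf9 cells expressing recombinant human FLAP (5 μg/well) on WGA SPA beads were incubated with compound and 0.08 nM [125I]L-691,831 in Tris pH 7.5 binding buffer, shaken 2 h. Displacement read by scintillation proximity; non-specific binding set with 10 μM unlabelled L-691,831.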

| IC50 [1] [nM] | IC50 [2] [nM] | SMILES |
| --- | --- | --- |
| 400 | 1.6 | Nc1ncc(-c2ccc(C3(c4c[nH]c5c(F)cccc45)CCC3)cc2)cn1 [Example 87, 5-{4-[1-(7-fluoro-1H-indol-3-yl)cyclobutyl]phenyl}pyrimidin-2-amine] |
| 430 | 1.7 | Nc1ncc(-c2ccc(C3(c4c[nH]c5ccccc45)CCCC3)cc2)cn1 [Example 88, 5-{4-[1-(1H-indol-3-yl)cyclopentyl]phenyl}pyrimidin-2-amine] |
| 2200 | 12 | Nc1ncc(-c2ccc(C3(c4c[nH]c5ccccc45)CCCCC3)cc2)cn1 [Example 89, 5-{4-[1-(1H-indol-3-yl)cyclohexyl]phenyl}pyrimidin-2-amine] |
| 170 | 0.75 | CS(=O)(=O)c1ccc2c(C3(c4ccc(-c5cnc(N)nc5)cc4)CCC3)c[nH]c2c1 [Example 90, 5-(4-{1-[6-(methylsulfonyl)-1H-indol-3-yl]cyclobutyl}phenyl)pyrimidin-2-amine] |
| 230 | 2.7 | CCC(C)(c1ccc(-c2cnc(N)nc2)cc1)c1c[nH]c2ccccc12 (stereo not shown) [Example 91, 5-{4-[2-(1H-indol-3-yl)butan-2-yl]phenyl}pyrimidin-2-amine] |
| 840 | 9.1 | Nc1ncc(-c2ccc(C3(c4nc(-c5cccnc5)no4)CCC3)cc2)cn1 [Example 92, 5-(4-{1-[3-(pyridin-3-yl)-1,2,4-oxadiazol-5-yl]cyclobutyl}phenyl)pyrimidin-2-amine] |
| > 5000 | 29 | Nc1ncc(-c2ccc(C3(c4nnc(-c5ccccc5)o4)CCC3)cc2)cn1 [Example 93, 5-{4-[1-(5-phenyl-1,3,4-oxadiazol-2-yl)cyclobutyl]phenyl}pyrimidin-2-amine] |
| 2800 | 120 | Nc1ncc(-c2ccc(C3(c4nnc(-c5cccnc5)o4)CCC3)cc2)cn1 [Example 94, 5-(4-{1-[5-(pyridin-3-yl)-1,3,4-oxadiazol-2-yl]cyclobutyl}phenyl)pyrimidin-2-amine] |
| 960 | 5 | Cn1cc(C2(c3ccc(-c4cnc(N)nc4)cc3)CCC2)c2cccnc21 [Example 95, 5-{4-[1-(1-methyl-1H-pyrrolo[2,3-b]pyridin-3-yl)cyclobutyl]phenyl}pyrimidin-2-amine] |
| 240 | 1.4 | CC(C)C(C)(c1ccc(-c2cnc(N)nc2)cc1)c1n[nH]c(-c2ccccc2)n1 (stereo not shown) [Example 96, 5-{4-[3-methyl-2-(5-phenyl-1H-1,2,4-triazol-3-yl)butan-2-yl]phenyl}pyrimidin-2-amine] |
| 4100 | 14 | CC(C)C(C)(c1ccc(-c2cnc(N)nc2)cc1)c1nnc(-c2ccccc2)o1 (stereo not shown) [Example 97, 5-{4-[3-methyl-2-(5-phenyl-1,3,4-oxadiazol-2-yl)butan-2-yl]phenyl}pyrimidin-2-amine] |
| 360 | 0.6 | CC(C)C(C)(c1ccc(-c2cnc(N)nc2)cc1)c1c[nH]c2c(C(=O)N3CCC(O)C3)cccc12 (stereo not shown) [Example 98, (3-{2-[4-(2-aminopyrimidin-5-yl)phenyl]-3-methylbutan-2-yl}-1H-indol-7-yl)(3-hydroxypyrrolidin-1-yl)methanone] |
| 1600 | 0.93 | CC(C)C(C)(c1ccc(-c2cnc(N)nc2)cc1)c1c[nH]c2c(C(=O)N(C)CCO)cccc12 (stereo not shown) [Example 99, 3-[1-[4-(2-aminopyrimidin-5-yl)phenyl]-1,2-dimethyl-propyl]-N-(2-hydroxyethyl)-N-methyl-1H-indole-7-carboxamide] |
| 2100 | 18 | COc1cncc(-c2ccc(C(c3ncc(-c4cnc(N)nc4)s3)C(C)C)cc2)c1 (stereo not shown) [Example 100] |
| 1400 | 12 | CC(C)C(C)(c1ccc(-c2cnc(N)nc2)cc1)c1nc(-c2cccnc2)no1 (stereo not shown) [Example 101, 5-(4-{3-methyl-2-[3-(pyridin-3-yl)-1,2,4-oxadiazol-5-yl]butan-2-yl}phenyl)pyrimidin-2-amine] |
| 900 | 3.7 | Nc1ncc(-c2ccc(C3(c4nnc(-c5cccnc5)[nH]4)CCC3)cc2)cn1 [Example 102, 5-(4-{1-[5-(pyridin-3-yl)-4H-1,2,4-triazol-3-yl]cyclobutyl}phenyl)pyrimidin-2-amine] |
| 160 | 2.5 | Nc1ncc(-c2ccc(C3(c4c[nH]c5ncccc45)CCC3)cc2)cn1 [Example 103, 5-{4-[1-(1H-pyrrolo[2,3-b]pyridin-3-yl)cyclobutyl]phenyl}pyrimidin-2-amine] |
| 1900 | 8.6 | CC(C)C(C)(c1ccc(-c2cnc(N)nc2)cc1)c1nc2ccccc2[nH]1 (stereo not shown) [Example 104, 5-{4-[2-(1H-benzimidazol-2-yl)-3-methylbutan-2-yl]phenyl}pyrimidin-2-amine] |

| IC50 [1] [nM] | IC50 [2] [nM] | SMILES |
| --- | --- | --- |
| > 5000 | 91 | CN(CCO)C(=O)c1ccc2[nH]cc(C3(c4ccc(-c5cnc(N)nc5)cc4)CCC3)c2c1 [Example 105, 3-{1-[4-(2-aminopyrimidin-5-yl)phenyl]cyclobutyl}-N-(2-hydroxyethyl)-N-methyl-1H-indole-5-carboxamide] |
| 4100 | 0.91 | Nc1ncc(-c2ccc(C3(c4c[nH]c5cc(C(=O)N6CCC(O)C6)ccc45)CCC3)cc2)cn1 (stereo not shown) [Example 106, (3-{1-[4-(2-aminopyrimidin-5-yl)phenyl]cyclobutyl}-1H-indol-6-yl)(3-hydroxypyrrolidin-1-yl)methanone] |
| 180 | 1.2 | Nc1ncc(-c2ccc(C3(c4c[nH]c5c(C(=O)N6CCC(O)C6)cccc45)CCC3)cc2)cn1 (stereo not shown) [Example 107, (3-{1-[4-(2-aminopyrimidin-5-yl)phenyl]cyclobutyl}-1H-indol-7-yl)(3-hydroxypyrrolidin-1-yl)methanone] |
| 360 | 3 | Nc1ncc(-c2ccc(C3(c4c[nH]c5cccnc45)CCC3)cc2)cn1 [Example 108, 5-{4-[1-(1H-pyrrolo[3,2-b]pyridin-3-yl)cyclobutyl]phenyl}pyrimidin-2-amine] |
| 71 | 1.3 | Nc1ncc(-c2ccc(C3(c4c[nH]c5cnccc45)CCC3)cc2)cn1 [Example 109, 5-{4-[1-(1H-pyrrolo[2,3-c]pyridin-3-yl)cyclobutyl]phenyl}pyrimidin-2-amine] |
| 1500 | 87 | Nc1ncc(-c2ccc(C3(c4c[nH]c5ccncc45)CCC3)cc2)cn1 [Example 110, 5-{4-[1-(1H-pyrrolo[3,2-c]pyridin-3-yl)cyclobutyl]phenyl}pyrimidin-2-amine] |
| > 5000 | 1.5 | Nc1ncc(-c2ccc(C3(c4cn(CCO)c5ccccc45)CCC3)cc2)cn1 [Example 111, 2-(3-{1-[4-(2-aminopyrimidin-5-yl)phenyl]cyclobutyl}-1H-indol-1-yl)ethanol] |
| 570 | 3.2 | CC(C)C(C)(c1ccc(-c2cnc(N)nc2)cc1)c1nc2ccccc2o1 (stereo not shown) [Example 112, 5-{4-[2-(1,3-benzoxazol-2-yl)-3-methylbutan-2-yl]phenyl}pyrimidin-2-amine] |
| 100 | 1.1 | Nc1ncc(-c2ccc(C3(c4c[nH]c5c(C(=O)N6CC(O)C6)cccc45)CCC3)cc2)cn1 [Example 113, (3-{1-[4-(2-aminopyrimidin-5-yl)phenyl]cyclobutyl}-1H-indol-7-yl)(3-hydroxyazetidin-1-yl)methanone] |
| 380 | 2.3 | Nc1ncc(-c2ccc(C3(c4c[nH]c5c(C(=O)N6CCS(=O)(=O)CC6)cccc45)CCC3)cc2)cn1 [Example 114] |
| 1100 | 2.6 | CN(CCO)C(=O)c1cccc2c(C3(c4ccc(-c5cnc(N)nc5)cc4)CCC3)c[nH]c12 [Example 115, 3-{1-[4-(2-aminopyrimidin-5-yl)phenyl]cyclobutyl}-N-(2-hydroxyethyl)-N-methyl-1H-indole-7-carboxamide] |
| 270 | 2.5 | COCCN(C)C(=O)c1cccc2c(C3(c4ccc(-c5cnc(N)nc5)cc4)CCC3)c[nH]c12 [Example 116, 3-{1-[4-(2-aminopyrimidin-5-yl)phenyl]cyclobutyl}-N-(2-methoxyethyl)-N-methyl-1H-indole-7-carboxamide] |
| 30 | 1.1 | NC(=O)c1cccc2c(C3(c4ccc(-c5cnc(N)nc5)cc4)CCC3)c[nH]c12 [Example 117, 3-{1-[4-(2-aminopyrimidin-5-yl)phenyl]cyclobutyl}-1H-indole-7-carboxamide] |
| 69 | 1.6 | Nc1ncc(-c2ccc(C3(c4c[nH]c5ccccc45)CCC3)cc2)cc1CO [Example 118, [2-amino-5-[4-[1-(1H-indol-3-yl)cyclobutyl]phenyl]-3-pyridyl]methanol] |
| 170 | 1.5 | Nc1ncc(-c2ccc(C3(c4c[nH]c5c(C(=O)NCCO)cccc45)CCC3)cc2)cn1 [Example 119, 3-{1-[4-(2-aminopyrimidin-5-yl)phenyl]cyclobutyl}-N-(2-hydroxyethyl)-1H-indole-7-carboxamide] |
| > 5000 | 4.7 | Nc1ncc(-c2ccc(C3(c4cn(CCOCCO)c5ccccc45)CCC3)cc2)cn1 [Example 120, 2-[2-(3-{1-[4-(2-aminopyrimidin-5-yl)phenyl]cyclobutyl}-1H-indol-1-yl)ethoxy]ethanol] |
| 810 | 8.7 | Nc1ncc(-c2ccc(C3(c4nnc(-c5ccccc5)[nH]4)CCC3)cn2)cn1 [Example 121, 5-{5-[1-(5-phenyl-4H-1,2,4-triazol-3-yl)cyclobutyl]pyridin-2-yl}pyrimidin-2-amine] |
